Consider 4 molecules from ChEMBL document CHEMBL1177729, “Nortriterpene lactones from the fruits of Schisandra arisanensis” (2010).

One experiment relates to Neutrophil. The experiment in a line: Antiinflammatory activity in human neutrophils assessed as inhibition of FMLP/CB-induced elastase release at 10 ug/mL. The class given is functional.
The next experiment relates to Human alphaherpesvirus 1. The experiment can be described thus: Antiviral activity against HSV1 KOS infected in african green monkey Vero cells assessed as inhibition of viral plaque formation in […] cells at 100 uM after 5 days by plaque reduction assay. The class given is functional. The note with it: Human alphaherpesvirus 1, KOS, 120 h. For orientation: In a plaque reduction assay, fewer plaques than in the control indicate reduced infectivity or spread.

Molecules are shown by their SMILES.

Regarding `C[C@H]([C@H](O)[C@@H]1C[C@@H](C)C(=O)O1)[C@@H]1[C@H]2[C@]1(C)CC[C@@]13O[C@]2(O)C(=O)[C@@H]1CC[C@H]1C(C)(C)O[C@@H]2[C@@H](O)C(=O)O[C@@]21[C@H]3O`, the inhibition (commonly the percentage by which the read-out fell short of the control) at 10 µg/mL in the experiment with Neutrophil came to 18.5%.

In the case of `C[C@H]1C(=O)[C@@]2(C)CC[C@]34C[C@]56OC(=O)C[C@@]5(O)OC(C)(C)[C@@H]6C[C@H](O)[C@H]3C(=O)[C@@]3(O[C@H]5[C@H](OC(=O)[C@]5(C)O)[C@@H]1[C@]32C)O4` [ARISANLACTONE B], the inhibition at 100 µM in the experiment with Human alphaherpesvirus 1 worked out at 25%. Further, in the experiment with Neutrophil, the inhibition at 10 µg/mL is 22.2%.

`O=c1c(-c2ccc(O)cc2)coc2cc(O)cc(O)c12` [GENISTEIN]: the inhibition at 10 µg/mL with Neutrophil is 51.6%.

Regarding `C[C@@H]1C(=O)O[C@H]2[C@@H]1O[C@]13O[C@@]4(CC[C@]5(C)C(=O)[C@H](C)[C@H]2[C@]15C)C[C@]12OC(=O)C[C@@]1(O)OC(C)(C)[C@@H]2C[C@H](O)[C@H]4C3=O` [SCHINDILACTONE E], the inhibition at 100 µM in the experiment on Human alphaherpesvirus 1 came out at 30%.
